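Grown in 96-well plates, cells were treated for 48 hours with each compound at five concentrations. Insufficient inhibition: endpoint recorded as highest concentration tested. Here, GI50 denotes the concentration required for 50% inhibition of growth.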 Calls of active or inactive are those of the source. Cut-off read from the data, not from the text of the source: active = GI50 up to about 1.1 µM and inactive = higher. Positions of bridges follow the written chain, without caps; N, C: chain ends. Non-standard residues stand in square brackets, D forms with d. Residues, ends and D or L forms follow the SMILES beside them. *: point of attachment. Cbz = O=C(OCc1ccccc1)*; Aib = CC(C)(N)C(=O)O; OBn = c1ccc(CO*)cc1; βAla = NCCC(=O)O
Key:
Assay in all cases: growth of human tumour cells (NCI), 48 h
A549 = system: A549
BT-549 = system: BT-549
CAKI-1 = system: CAKI-1
DU-145 = system: DU-145
HCC 2998 = system: HCC 2998
HCT-15 = system: HCT-15
K562 = system: K562
MDA-MB-231 = system: MDA-MB-231
MDA-MB-435 = system: MDA-MB-435
NCI-H522 = system: NCI-H522
NCI/ADR-RES = system: NCI/ADR-RES
SF-295 = system: SF-295
SN12C = system: SN12C
SR = system: SR
SW-620 = system: SW-620
HOP-62 = system: HOP-62
NCI-H460 = system: NCI-H460
SF-268 = system: SF-268
SK-MEL-28 = system: SK-MEL-28
SNB-19 = system: SNB-19

SMILES	GI50 (A549)	GI50 (BT-549)	GI50 (CAKI-1)	GI50 (DU-145)	GI50 (HCC 2998)	GI50 (HCT-15) [µM]	GI50 (K562)	GI50 (MDA-MB-231)	GI50 (MDA-MB-435)	GI50 (NCI-H522)	GI50 (NCI/ADR-RES)	GI50 (SF-295)	GI50 (SN12C)	GI50 (SR)	GI50 (SW-620)	GI50 (HOP-62)	GI50 (NCI-H460)	GI50 (SF-268)	GI50 (SK-MEL-28)	GI50 (SNB-19)
CCOC(=O)/C(=C/Nc1c(C)n(C)n(-c2ccccc2)c1=O)C(C)=O	> 100 µM (inactive)	> 100 µM (inactive)	> 100 µM (inactive)	> 100 µM (inactive)	> 100 µM (inactive)	> 100	> 100 µM (inactive)	> 100 µM (inactive)	> 100 µM (inactive)	> 100 µM (inactive)	> 100 µM (inactive)	> 100 µM (inactive)	> 100 µM (inactive)	> 100 µM (inactive)	> 100 µM (inactive)					
CC(C)c1ccc(C2NC(S)=NC3=C2c2ccccc2C3=O)cc1 (stereo not given)	28.6 µM (inactive)	17.1 µM (inactive)	22.8 µM (inactive)	16.7 µM (inactive)	> 36.6 µM (inactive)	20.6	22.6 µM (inactive)	16.9 µM (inactive)	6.97 µM (inactive)	17.3 µM (inactive)	15.1 µM (inactive)	20.5 µM (inactive)	24.7 µM (inactive)	8.95 µM (inactive)	23.4 µM (inactive)	25.8 µM (inactive)	29.2 µM (inactive)	19.9 µM (inactive)	21.1 µM (inactive)	23.8 µM (inactive)
COc1cc2c(cc1OC)C1CN3C(=O)CCC3C(O)C1c1cc(OC)c(OC)cc1-2 (stereo not given)	> 100 µM (inactive)	> 100 µM (inactive)	> 100 µM (inactive)	> 100 µM (inactive)	> 100 µM (inactive)	> 100	> 100 µM (inactive)	> 100 µM (inactive)	> 100 µM (inactive)	> 100 µM (inactive)	> 100 µM (inactive)	> 100 µM (inactive)	> 100 µM (inactive)	> 100 µM (inactive)	> 100 µM (inactive)	> 100 µM (inactive)	> 100 µM (inactive)	> 100 µM (inactive)	> 100 µM (inactive)	> 100 µM (inactive)
CC1=[N+](C)CCN1C	> 100 µM (inactive)	> 100 µM (inactive)	> 100 µM (inactive)	> 100 µM (inactive)	> 100 µM (inactive)	> 100	> 100 µM (inactive)	> 100 µM (inactive)	> 100 µM (inactive)	> 100 µM (inactive)	> 100 µM (inactive)	> 100 µM (inactive)	> 100 µM (inactive)	> 100 µM (inactive)	> 100 µM (inactive)	> 100 µM (inactive)	> 100 µM (inactive)	> 100 µM (inactive)	> 100 µM (inactive)	> 100 µM (inactive)
CCOP(=O)(Nc1ccc2oc(=O)c3ccccc3c2c1)OCC	41.9 µM (inactive)	15.2 µM (inactive)	26.2 µM (inactive)	92.7 µM (inactive)	88.5 µM (inactive)	79.8	38.1 µM (inactive)	38.4 µM (inactive)	> 100 µM (inactive)	68.9 µM (inactive)	71.1 µM (inactive)	> 100 µM (inactive)	> 100 µM (inactive)	31.7 µM (inactive)	> 100 µM (inactive)	62.1 µM (inactive)	> 100 µM (inactive)	56.6 µM (inactive)	> 100 µM (inactive)	84.1 µM (inactive)
CC1(C)NC(=O)C(NC(=O)C(CC(=O)OCc2ccccc2)NC(=O)OCc2ccccc2)CCCCNC(=O)CCNC1=O (stereo not given) (Cbz-D(OBn)K[Aib][βAla]; lactam 2-C; configuration not given here)	> 100 µM (inactive)	> 100 µM (inactive)	> 100 µM (inactive)	> 100 µM (inactive)	> 100 µM (inactive)	> 100	> 100 µM (inactive)	> 100 µM (inactive)	> 100 µM (inactive)	> 100 µM (inactive)	> 100 µM (inactive)	> 100 µM (inactive)	> 100 µM (inactive)	> 10 µM (inactive)	> 100 µM (inactive)	> 100 µM (inactive)	> 100 µM (inactive)	> 100 µM (inactive)	> 100 µM (inactive)	> 100 µM (inactive)
Cc1cccc2c(N)c3cccc(C(=O)NCC[N+](C)(C)Cc4ccc([N+](=O)[O-])n4C)c3nc12	1.92 µM (inactive)	> 42.6 µM (inactive)	7.1 µM (inactive)	18.8 µM (inactive)	10.6 µM (inactive)	27.9	11.5 µM (inactive)	38.6 µM (inactive)	52 µM (inactive)	8.65 µM (inactive)	55.3 µM (inactive)	17.6 µM (inactive)	3.07 µM (inactive)	3.44 µM (inactive)	18.6 µM (inactive)	5.25 µM (inactive)	8.97 µM (inactive)	8.47 µM (inactive)	43.8 µM (inactive)	15.6 µM (inactive)
COc1ccc(/C(CC2OC(=O)c3ccccc32)=N\NC(N)=O)cc1 (stereo not given)	> 100 µM (inactive)	> 100 µM (inactive)	> 100 µM (inactive)	> 100 µM (inactive)	> 100 µM (inactive)	> 100	> 100 µM (inactive)	> 100 µM (inactive)	> 100 µM (inactive)	> 100 µM (inactive)	> 100 µM (inactive)	> 100 µM (inactive)	> 100 µM (inactive)	> 100 µM (inactive)	> 100 µM (inactive)	> 100 µM (inactive)	> 100 µM (inactive)	> 100 µM (inactive)	> 100 µM (inactive)	> 100 µM (inactive)
COc1ccc(OC)c(/C=C/c2ccnc3ccccc23)c1	0.735 µM (active)	0.568 µM (active)	1.28 µM (inactive)	0.525 µM (active)	1.24 µM (inactive)	0.372	0.191 µM (active)	0.565 µM (active)	0.167 µM (active)	0.281 µM (active)	0.255 µM (active)	0.332 µM (active)	0.619 µM (active)	0.277 µM (active)	0.366 µM (active)	0.45 µM (active)	0.371 µM (active)	0.647 µM (active)	0.574 µM (active)	0.631 µM (active)
Cc1nc(C)c(N2CCN(S(N)(=O)=O)CC2)c(O)n1	> 100 µM (inactive)	> 100 µM (inactive)	> 100 µM (inactive)	> 100 µM (inactive)	> 100 µM (inactive)	> 100	> 100 µM (inactive)	> 100 µM (inactive)	> 100 µM (inactive)	> 100 µM (inactive)	> 100 µM (inactive)	> 100 µM (inactive)	> 100 µM (inactive)	> 100 µM (inactive)	> 100 µM (inactive)	> 100 µM (inactive)	> 100 µM (inactive)	> 100 µM (inactive)	> 100 µM (inactive)	> 100 µM (inactive)
C1CCNCC1.S=C(S)N1CCCCC1	0.632 µM (active)	406 µM (inactive)	33.4 µM (inactive)	140 µM (inactive)	100 µM (inactive)	88.9	0.601 µM (active)	16.1 µM (inactive)	199 µM (inactive)	0.276 µM (active)	19.3 µM (inactive)	99.8 µM (inactive)	64.6 µM (inactive)	0.46 µM (active)	0.573 µM (active)	129 µM (inactive)		75.7 µM (inactive)	48.6 µM (inactive)	149 µM (inactive)
CC(C)(C)OC(=O)N(O)[C@@H]1CC[C@H](n2cnc3c(N)ncnc32)C1	> 100 µM (inactive)	> 100 µM (inactive)		> 100 µM (inactive)	> 100 µM (inactive)	> 100	> 100 µM (inactive)	> 100 µM (inactive)	> 100 µM (inactive)	> 100 µM (inactive)	> 100 µM (inactive)	> 100 µM (inactive)	> 100 µM (inactive)	> 100 µM (inactive)	> 100 µM (inactive)	> 100 µM (inactive)	> 100 µM (inactive)	> 100 µM (inactive)	> 100 µM (inactive)	> 100 µM (inactive)
Cc1nc2c(n1CCCl)C(=O)c1ccccc1C2=O	33.7 µM (inactive)	20.1 µM (inactive)		35.4 µM (inactive)	21.7 µM (inactive)	7.87	16 µM (inactive)	15.4 µM (inactive)	15.3 µM (inactive)	16.7 µM (inactive)	16.2 µM (inactive)	21.4 µM (inactive)	30.3 µM (inactive)	28.8 µM (inactive)	23 µM (inactive)	19.5 µM (inactive)	14.9 µM (inactive)	22 µM (inactive)	42.8 µM (inactive)	39.1 µM (inactive)
O=c1c2ccccc2sc2c(CO)ccc(NCCN3CCCCC3)c12	3.46 µM (inactive)	10.8 µM (inactive)	3.45 µM (inactive)	2.54 µM (inactive)		3.56	2 µM (inactive)	5.48 µM (inactive)	2.64 µM (inactive)	1.58 µM (inactive)	2.64 µM (inactive)	3.61 µM (inactive)	3.27 µM (inactive)	0.497 µM (active)	2.25 µM (inactive)	3.24 µM (inactive)	2.68 µM (inactive)	3.32 µM (inactive)	2.9 µM (inactive)	4.73 µM (inactive)
Cn1c(=O)c2sc3c4sc5c(=O)n(C)c6ccccc6c5c4sc3c2c2ccccc21	> 100 µM (inactive)	> 100 µM (inactive)	> 100 µM (inactive)	> 100 µM (inactive)	> 100 µM (inactive)	> 100	> 100 µM (inactive)	31.5 µM (inactive)	> 100 µM (inactive)	> 100 µM (inactive)	> 100 µM (inactive)		> 100 µM (inactive)	66.4 µM (inactive)	> 100 µM (inactive)	46.5 µM (inactive)	> 100 µM (inactive)	> 100 µM (inactive)	> 100 µM (inactive)	22.4 µM (inactive)

Source: ChEMBL document CHEMBL1201862, “PubChem BioAssay data set” (2004)
